Assays:
[1] = system: Transgenic mice over-expressing human SCCE; assay: Histological studies of skin morphology in SCCE transgenic mice after topical treatment; type: in vivo; conditions: for side effects (unusually thin epidermis): day 8 histology; for Unusually thin epidermis / Morphology changes: topical once daily 8 days, day 8; for Unusually thin epidermis: mice affected/mice in group; for Morphology changes: mice with changes/mice in group
Source text: (§1) Transgenic mice over-expressing human SCCE under the control of the SV40 early promoter were generated as described in WO 02/062135. These transgenic mice show a pattern of SCCE-expression which is similar to the expression pattern seen in psoriasis lesions and chronic lesions in atopic dermatitis in humans, i.e. expression in suprabasal cells which increases with distance from the basal layer. The transgenic mice develop pathological skin changes with marked hyperkeratosis, increased epidermal thickness, and dermal inflammation. From the age of 8-10 weeks transgenic mice show signs of itch, the frequency of which increase with age. The increase marked changes in skin morphology including increased epidermal thickness, also causes higher transepidermal water loss.
(§2) Transgenic mice, 6-9 month of age, were treated daily with compound I-3 (2-(2-Iodo-phenyl)-6,7-dimethoxy-benzo[d][1,3]oxazin-4-one) which was identified as an SCCE inhibitor as described above during 8 days. The substance was initially dissolved in DMSO and formulated in vehicle containing 45% isopropanol, 6% 1,2-propanediol with a 1.2% final concentration of DMSO. Two different concentrations of inhibitor, 300 μM and 30 μM, were formulated.
The study contained four different treatments with 3-4 mice in each group. Each mouse used in the study had phenotypic changes typical of SCCE transgenic animals.
• high dose (300 μM) of compound I-3 • low dose (30 μM) of compound I-3 • positive control (a pharmaceutical formulation (Betnovat, Glaxo SmithKline AB) containing betametasone) • negative control, vehicle (a pharmaceutical formulation lacking active substance)
The formulations (500 μl/mouse) were applied once daily (late afternoon) on the area around the ears and on the back of the mice. Mice were treated during 8 days and measurements of transepidermal water loss (TEWL) were performed during the treatment period.
Histological studies of skin morphology were performed on sacrificed mice after the last day of treatment (day 8). Tissue samples were fixed in 4% phosphate-buffered formaldehyde for 24 h in room temperature (RT) and then embedded in paraffin using standard histological procedure. To analyze tissue morphology, embedded tissue was sectioned (5 μm) and then stained with haematoxylin and Eosin (H/E) using standard histological protocols.

[2] = system: Transgenic mice over-expressing human SCCE; assay: Transepidermal water loss (TEWL) in SCCE transgenic mice after topical treatment; type: in vivo; conditions: both concentrations (30 μM and 300 μM), topical once daily, 8 days, relative to positive control Betamethasone
Source text: as §1
as §2, with “Two different concentrations of inhibitor, 300 μM and 30 μM, were formulated.” left out
TEWL was measured on the back of mice with an Evaporimeter from DermaLAB (Cortex Technology ApS, Hadsund, Denmark) according to manufactures protocol. […] TEWL was measured on in the morning at day 0, 3, 5 and 8 for 1 min repeated twice.

[3] = molecular target: T1, Recombinant active human SCCE (Homo sapiens, UniProt P49862); assay: SCCE Inhibitor Test (chromogenic substrate S-2586, absorbance at 405 nm); type: biochemical; conditions: for IC50: 10 min preincubation, 1 mM S-2586, 60 min, 37° C, pH 7.2; for remaining activity at 1 µM: 1 μM compound; for remaining activity at 5 µM: 5 μM compound
T1 construct: made in house; host or cells: murine C127 cells transfected with a BPV vector (murine MT promoter)
Method: Recombinant active human SCCE was produced essentially as described in WO 95/00651. The cDNA encoding human SCCE was introduced into a BPV vector under the control of the murine MT promoter and expressed in transfected C127 cells. The produced SCCE was purified and activated using immobilized bovine trypsin.
SCCE activity was determined using the chromogenic substrate S-2586 (MeO-Suc-Arg-Pro-Tyr-pNA) (Chromogenix, Mölndal, Sweden) by measurement of the change in absorbance at 405 nm essentially as described in WO 95/00651. Inhibitors were dissolved in DMSO and added to the reaction mixture (10 mM sodium phosphate, pH 7.2, 0.5 M NaCl, 2.5 μg/ml SCCE) at appropriate concentrations followed by incubation for 10 min before the start of the enzymatic reaction by subsequent addition of the substrate S-2586 to a final concentration of 1 mM. The change in absorbance at 405 nm after 60 min was recorded and used as a measure of SCCE activity. The assay temperature was 37° C. […] The IC50 values were used to identify compounds as SCCE inhibitors of the invention.

[4] = positive control formulation (Betnovat)

T1 sequence (P49862 30-253): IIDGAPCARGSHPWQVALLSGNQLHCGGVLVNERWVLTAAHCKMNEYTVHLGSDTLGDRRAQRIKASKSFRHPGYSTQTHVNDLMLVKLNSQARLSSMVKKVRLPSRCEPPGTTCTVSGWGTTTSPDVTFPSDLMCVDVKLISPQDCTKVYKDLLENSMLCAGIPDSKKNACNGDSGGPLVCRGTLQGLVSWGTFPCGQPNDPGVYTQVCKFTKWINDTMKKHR

SMILES | IC50 [3] | remaining activity at 1 µM ([3]; 1 h) | remaining activity at 5 µM ([3]; 1 h) | other results
C[C@H]1C[C@H]2[C@@H]3CCC4=CC(=O)C=C[C@]4(C)[C@@]3(F)[C@@H](O)C[C@]2(C)[C@@]1(O)C(=O)CO [Betamethasone, reference compound] | – | – | – | side effects (unusually thin epidermis) [1]: side effects (unusually thin epidermis) found; Unusually thin epidermis [1, 4]: 3/3; Morphology changes [1, 4]: 0/3
COc1cc2nc(-c3ccccc3I)oc(=O)c2cc1OC [Compound I-3, 2-(2-Iodo-phenyl)-6,7-dimethoxy-benzo[d][1,3]oxazin-4-one] | 0.1 µM | – | – | Unusually thin epidermis ([1]; 30 μM): 0/4; Morphology changes ([1]; 30 μM): 1/4; Unusually thin epidermis ([1]; 300 μM): 0/4; Morphology changes ([1]; 300 μM): 1/4; effects on skin morphology ([1]; both concentrations (30 μM and 300 μM), compared with vehicle group): positive effects on skin morphology to a higher degree then vehicle group; side effects (unusually thin epidermis) [1]: without the side effects; improvement of TEWL [2]: improves TEWL with approximately half the efficiency of the positive control; remaining activity at 10 µM ([3]; 1 h, 10 μM compound): 0%
O=c1oc(-c2ccc(F)cc2)nc2sc3c(c12)CCC3 [II-13, 6-(4-Fluoro-phenyl)-2,3-dihydro-1H-5-oxa-8-thia-7-aza-cyclopenta[a]inden-4-one] | 0.3 µM | 37% | 14% | –
O=c1oc(-c2cccs2)nc2sc3c(c12)CCC3 [II-14, 6-Thiophen-2-yl-2,3-dihydro-1H-5-oxo-8-thia-7-aza-cyclopenta[a]inden-4-one] | 0.3 µM | 37% | 21% | –
O=c1oc(-c2ccccc2F)nc2sc3c(c12)CCCC3 [II-15, 2-(2-Fluoro-phenyl)-5,6,7,8-tetrahydro-3-oxa-9-thia-1-aza-fluoren-4-one] | 0.07 µM | 7% | 2.4% | –
COc1ccccc1-c1nc2sc3c(c2c(=O)o1)CCCC3 [II-16, 2-(2-Methoxy-phenyl)-5,6,7,8-tetrahydro-3-oxa-9-thia-1-aza-fluoren-4-one] | 0.07 µM | 2.7% | 0% | –
O=c1oc(-c2ccccc2)nc2sc3c(c12)CCCC3 [II-17, 2-Phenyl-5,6,7,8-tetrahydro-3-oxa-9-thia-1-aza-fluoren-4-one] | 0.7 µM | 45% | 33% | –
O=c1oc(-c2cccc3ccccc23)nc2sc3c(c12)CCCC3 [II-18, 2-Naphtalen-1-yl-5,6,7,8-tetrahydro-3-oxa-9-thia-1-aza-fluoren-4-one] | 1 µM | 38% | 41% | –
O=c1oc(-c2cccs2)nc2sc3c(c12)CCCC3 [II-19, 2-Thiophen-2-yl-5,6,7,8-tetrahydro-3-oxa-9-thia-1-aza-fluoren-4one] | 1 µM | 52% | 41% | –
COc1cccc(-c2nc3sc4c(c3c(=O)o2)CCCC4)c1 [II-20, 2-(3-Methoxy-phenyl)-5,6,7,8-tetrahydro-3-oxa-9-thia-1-aza-fluoren-4-one] | 2 µM | 52% | 42% | –
O=c1oc(-c2ccncc2)nc2sc3c(c12)CCCCC3 [II-21, 2-Pyridin-4-yl-6,7,8,9-tetrahydro-5H-3-oxa-10-thia-1-aza-benzo[a]azulen-4-one] | 2 µM | – | – | –
Cc1nc2sc3c(c2c(=O)o1)CCCCC3 [II-22, 2-Methyl-6,7,8,9-tetrahydro-5H-3-oxa-10-thia-1-aza-benzo[a]azulen-4-one] | > 10 µM | 49% | 27% | –

From patent publication US7872052B2, “Use of heterocyclic compounds as SCCE inhibitors” (Arexis AB, priority 2003, dated 2011)
